Reference: patent publication US11685746B2, “Heteroaryl compounds for treating Huntington's disease” (PTC THERAPEUTICS, INC., priority 2018, dated 2023)

system: Endogenous Huntingtin Protein; experiment: Endogenous Huntingtin Protein Assay (MSD plates, MW1 or MAB2166 capture antibody); format: cell-based; details: Table 1
Procedure: Endogenous Huntingtin Protein Assay
Meso Scale Discovery (MSD) 96-well or 384-well plates were coated overnight at 4° C. with MW1 (expanded polyglutamine) or MAB2166 monoclonal antibody (for capture) at a concentration of 1 μg/mL in PBS (30 μL per well). Plates were then washed three times with 300 μL wash buffer (0.05% Tween-20 in PBS) and blocked (100 μL blocking buffer; 5% BSA in PBS) for 4-5 hours at room temperature with rotational shaking and then washed three times with wash buffer.
Samples (25 μL) were transferred to the antibody-coated MSD plate and incubated overnight at 4° C. After removal of the lysates, the plate was washed three times with wash buffer, and 25 μL of #5656S (Cell signaling; rabbit monoclonal) secondary antibody (diluted to 0.25 μg/mL in 0.05% Tween-20 in blocking buffer) was added to each well and incubated with shaking for 1 Hour at room temperature. Following incubation with the secondary antibody, the wells were rinsed with wash buffer after which 25 μL of goat anti-rabbit SULFO TAG secondary detection antibody (required aspect of the MSD system) (diluted to 0.25 μg/mL in 0.05% Tween-20 in blocking buffer) was added to each well and incubated with shaking for 1 hour at room temperature. After rinsing three times with wash buffer, 150 μL of read buffer T with surfactant (MSD) were added to each empty well, and the plate was imaged on a SI 6000 imager (MSD) according to manufacturers' instructions provided for 96- or 384-well plates.

| SMILES | IC50 |
| --- | --- |
| C[C@H]1C[C@H](N(C)c2nc3sc(-c4ncc(-c5cn[nH]c5)c5cc[nH]c45)nc3s2)CCN1 [Compound 75, N-methyl-N-[(2S,4R)-2-methylpiperidin-4-yl]-5-[4-(1H-pyrazol-4-yl)-1H-pyrrolo[2,3-c]pyridin-7-yl][1,3]thiazolo[5,4-d][1,3]thiazol-2-amine] | ≤ 0.1 µM |
| Cc1n[nH]cc1-c1cnc(-c2nc3sc(N(C)C4CCNCC4)nc3s2)c(O)c1 [Compound 219, 2-{5-[methyl(piperidin-4-yl)amino][1,3]thiazolo[5,4-d][1,3]thiazol-2-yl}-5-(3-methyl-1H-pyrazol-4-yl)pyridin-3-ol] | ≤ 0.1 µM |
| Cc1n[nH]c(C)c1-c1cnc(-c2nc3sc(N(C)[C@H]4C[C@]5(C)CC[C@](C)(C4)N5)nc3s2)cn1 [Compound 73, N-[(1R,3s,5S)-1,5-dimethyl-8-azabicyclo[3.2.1]octan-3-yl]-5-[5-(3,5-dimethyl-1H-pyrazol-4-yl)pyrazin-2-yl]-N-methyl[1,3]thiazolo[5,4-d][1,3]thiazol-2-amine] | 1 to 3 µM |
| CN(c1nc2sc(-c3ccc(-c4cn[nH]c4)cc3O)nc2s1)C1CCNCC1 [Compound 14, 2-{5-[methyl(piperidin-4-yl)amino][1,3]thiazolo[5,4-d][1,3]thiazol-2-yl}-5-(1H-pyrazol-4-yl)phenol] | ≤ 0.1 µM |
| CN(c1nc2sc(-c3cnc(-c4cn[nH]c4)c4[nH]ccc34)nc2s1)C1CCNCC1 [Compound 226, N-methyl-N-(piperidin-4-yl)-5-[7-(1H-pyrazol-4-yl)-1H-pyrrolo[2,3-c]pyridin-4-yl][1,3]thiazolo[5,4-d][1,3]thiazol-2-amine] | ≤ 0.1 µM |
| Cn1cc2cc(-c3nc4sc(C5CCNCC5)nc4s3)cc(C#N)c2n1 [Compound 15, 2-methyl-5-[5-(piperidin-4-yl)[1,3]thiazolo[5,4-d][1,3]thiazol-2-yl]-2H-indazole-7-carbonitrile] | ≤ 0.1 µM |
| CN(c1nc2sc(-c3cc(F)c(-c4cn[nH]c4)cc3F)nc2s1)C1CC(C)(C)NC(C)(C)C1 [Compound 4, 5-[2,5-difluoro-4-(1H-pyrazol-4-yl)phenyl]-N-methyl-N-(2,2,6,6-tetramethylpiperidin-4-yl)[1,3]thiazolo[5,4-d][1,3]thiazol-2-amine] | ≤ 0.1 µM |
| CN(c1nc2sc(-c3cc(F)c(-c4cn[nH]c4)c(F)c3)nc2s1)C1CCNCC1 [Compound 21, 5-[3,5-difluoro-4-(1H-pyrazol-4-yl)phenyl]-N-methyl-N-(piperidin-4-yl)[1,3]thiazolo[5,4-d][1,3]thiazol-2-amine] | 1 to 3 µM |
| Cc1cn(-c2cnc(-c3nc4sc(N(C)[C@H]5C[C@]6(C)CC[C@](C)(C5)N6)nc4s3)cn2)cn1 [Compound 88, N-[(1R,3s,5S)-1,5-dimethyl-8-azabicyclo[3.2.1]octan-3-yl]-N-methyl-5-[5-(4-methyl-1H-imidazol-1-yl)pyrazin-2-yl][1,3]thiazolo[5,4-d][1,3]thiazol-2-amine] | ≤ 0.1 µM |
| CN(c1nc2sc(-c3ccc(-c4cnn(C)c4)cc3O)nc2s1)C1CCNCC1 [Compound 40, 2-{5-[methyl(piperidin-4-yl)amino][1,3]thiazolo[5,4-d][1,3]thiazol-2-yl}-5-(1-methyl-1H-pyrazol-4-yl)phenol] | ≤ 0.1 µM |
| C[C@@H]1C[C@@H](Oc2nc3sc(-c4ncc(-c5cn[nH]c5)c5cn[nH]c45)nc3s2)CCN1 [Compound 74, 7-(5-{[(2R,4S)-2-methylpiperidin-4-yl]oxy}[1,3]thiazolo[5,4-d][1,3]thiazol-2-yl)-4-(1H-pyrazol-4-yl)-1H-pyrazolo[3,4-c]pyridine] | ≤ 0.1 µM |
| C[C@@H]1C[C@@H](N(C)c2nc3sc(-c4ncc(-c5cn[nH]c5)c5cc[nH]c45)nc3s2)CCN1 [Compound 85, N-methyl-N-[(2R,4S)-2-methylpiperidin-4-yl]-5-[4-(1H-pyrazol-4-yl)-1H-pyrrolo[2,3-c]pyridin-7-yl][1,3]thiazolo[5,4-d][1,3]thiazol-2-amine] | ≤ 0.1 µM |
